Laboratory results reported in patent US8354547B2, “4β-amino podophyllotoxin congeners as anti tumour antibiotics a process for the preparation thereof” (Council of Scientific & Industrial Research, priority 2008, dated 2013).

Assays:
Type in all cases: cell-based, human
[1] = tested on: Liver (HEP-2) cancer cell line; experiment: SRB in vitro cytotoxicity assay, Liver HEP-2
Experimental: (§1) Single cell suspension of the tumor cells grown in tissue culture were made, cells counted and cell count adjusted to 1×10^5 to 5×10^5 Ninetysix (96) well plates were seeded with this cell suspension, each well receiving 100 μl of it. The plate was then be incubated at 37° C. temperature in CO2 incubator for 24 hours. Drugs were added at appropriate concentrations after 24-hour, incubation followed by further incubation for 48 hours. Experiment was terminated by gently layering the cells in the wells with 30% TCA and plates were kept in refrigerator for 1 hour following which they were washed thoroughly with tap water, dried attained with 0.4% SRB in 1% acetic aid and finally, the bound SRB eluted with 10 mM tris. Absorbance was read at 540 nm, in the microtitre-plate reader. Optical density of drug-treated cells was compared with that of control cells and cell inhibition was calculated as percent values. […]

[2] = tested on: Neuroblastoma (IMR-32) cancer cell line; experiment: SRB in vitro cytotoxicity assay, Neuroblastoma IMR-32
Experimental: as §1

[3] = tested on: Breast (MCF-7) cancer cell line; experiment: SRB in vitro cytotoxicity assay, Breast MCF-7
Experimental: as §1

[4] = tested on: CNS (SK-N-SH) cancer cell line; experiment: SRB in vitro cytotoxicity assay, CNS SK-N-SH
Experimental: as §1

[5] = tested on: Colon (Colo-205) cancer cell line; experiment: SRB in vitro cytotoxicity assay, Colon Colo-205
Experimental: as §1

[6] = tested on: Colon (SW-620) cancer cell line; experiment: SRB in vitro cytotoxicity assay, Colon SW-620
Experimental: as §1

[7] = concentration 1 × 10^−6 (μM/mL), control drug
[8] = concentration 1 × 10^−5 (μM/mL)

Structure (SMILES)	Growth Inhibition(%) Liver HEP-2 [1, 7] [%]	Growth Inhibition(%) Neuroblastma IMR-32 [2, 7] [%]	Growth Inhibition(%) Breast MCF-7 [3, 7] [%]	Growth Inhibition(%) CNS SK-N-SH [4, 7] [%]	Growth Inhibition(%) Colon Colo-205 [5, 7] [%]	Growth Inhibition(%) Colon SW-620 [6, 7] [%]	Growth Inhibition(%) Liver HEP-2 [1, 8] [%]	Growth Inhibition(%) Neuroblastma IMR-32 [2, 8] [%]	Growth Inhibition(%) Breast MCF-7 [3, 8] [%]	Growth Inhibition(%) CNS SK-N-SH [4, 8] [%]	Growth Inhibition(%) Colon Colo-205 [5, 8] [%]	Growth Inhibition(%) Colon SW-620 [6, 8] [%]
COc1cccc2c1C(=O)c1c(O)c3c(c(O)c1C2=O)C[C@@](O)(C(=O)CO)C[C@@H]3O[C@H]1C[C@H](N)[C@H](O)[C@H](C)O1 [ADR, Adriamycin, reference compound]	23	0	23	36	18	21	–	–	–	–	–	–
COc1cc([C@@H]2c3cc4c(cc3[C@@H](Nc3cccc5cc6ccccc6cc35)[C@@H]3COC(=O)[C@H]23)OCO4)cc(OC)c1OC [Compound 3a, 4β-(1″-Anthrylamino)-4-desoxypodophyllotoxin]	–	–	–	–	–	–	46	16	5	65	55	25
COc1cc([C@@H]2c3cc4c(cc3[C@@H](Nc3cccc5c3Cc3ccccc3-5)[C@@H]3COC(=O)[C@H]23)OCO4)cc(OC)c1OC [Compound 3b, 4β-(1″-Fluorenylamino)-4-desoxypodophyllotoxin]	–	–	–	–	–	–	77	0	4	44	49	11
COc1cc([C@@H]2c3cc4c(cc3[C@@H](Nc3ccc(C(=O)c5ccc(F)cc5)cc3)[C@@H]3COC(=O)[C@H]23)OCO4)cc(OC)c1OC [Compound 3e, 4β-[4″-(4″-Fluorobenzoyl)anilino]-4-desoxypodophyllotoxin]	–	–	–	–	–	–	0	0	30	34	68	10
COc1cc([C@@H]2c3cc4c(cc3[C@@H](Nc3ccc(C(=O)c5ccc(N(CCCl)CCCl)cc5)cc3)[C@@H]3COC(=O)[C@H]23)OCO4)cc(OC)c1OC [Compound 3f, 4β-(4″-{4″-[Di(2″-chloroethyl)amino]benzoyl}anilino)-4-desoxypodophyllotoxin]	–	–	–	–	–	–	45	0	40	83	74	15
COc1cc([C@@H]2c3cc4c(cc3[C@@H](Nc3cccc5cc6ccccc6cc35)[C@@H]3COC(=O)[C@H]23)OCO4)cc(OC)c1O [Compound 4a, 4′-O-Demethyl-4β-(1″-anthrylamino)-4-desoxypodophyllotoxin]	–	–	–	–	–	–	58	0	0	38	39	22
COc1cc([C@@H]2c3cc4c(cc3[C@@H](Nc3cccc5c3Cc3ccccc3-5)[C@@H]3COC(=O)[C@H]23)OCO4)cc(OC)c1O [Compound 4b, 4′-O-Demethyl-4β-(1″-fluorenylamino)-4-desoxypodophyllotoxin]	–	–	–	–	–	–	0	0	39	50	55	15
COc1cc([C@@H]2c3cc4c(cc3[C@@H](Nc3ccc(C(=O)c5ccc(F)cc5)cc3)[C@@H]3COC(=O)[C@H]23)OCO4)cc(OC)c1O [Compound 4e, 4′-O-Demethyl-4β-[4″-(4″-fluorobenzoyl)anilino]-4-desoxypodophyllotoxin]	–	–	–	–	–	–	51	11	39	91	77	42
